Data on one substance can be found in US10857209B2, “Lysosomal acid lipase and PPAR gamma ligands as immune therapies for cancer treatment” (Indiana University Research and Technology Corporation, priority 2016, dated 2020).

Test [1] deals with B16 melanoma cells. In words: Transwell assay, effect of MDSC-secreted cytokines on melanoma cell proliferation. The note with it: pre-treated lal−/− Ly6G+ cells in upper chamber; 72 hours. The test is classed as cell-based, mouse. The protocol:
To observe the effect of MDSCs-secreted cytokines on melanoma cell proliferation, transwell assay was performed with 0.4-μm-pore 6.5-mm diameter Transwell plates (Corning) to separate MDSCs and B16 melanoma cells. One million pre-treated MDSCs in 200 μL media were seeded into the upper chamber of the plates, while 2×10^4 melanoma cells in 500 μL media were placed in the lower chamber. After 72 hours' culture, the transwells were removed, and the number of B16 melanoma cells in the lower chamber was counted.

In another test the test system is Lin− cells. The experiment in a line: Differentiation of bone marrow Lin− cells into Ly6G+CD11b+ cells. The note with it: lal−/− Lin− cells; 10 μmol/L, 5 days; vs ethanol. It is filed as cell-based, mouse. The protocol:
Lineage-negative (Lin−) cells were isolated from the bone marrow by removing blood lineage marker-positive cells with an immunomagnetic microbead technique. Briefly, bone marrow cells were first incubated with a cocktail of biotin-conjugated antibodies against lineage specific antigens: CD11b, GR-1, B220, TER-119, and CD3ε (Mouse Lineage Panel Kit, BD Pharmingen, San Diego, Calif., USA) at 4° C. for 15 minutes. After washed with PBS, cells were then incubated with anti-biotin microbeads at 4° C. for another 15 minutes. Subsequently, cells were subjected to magnetic bead sorting according to the manufacturer's instructions (Miltenyi Biotec.). The resulting Lin− cells were cultured in RPMI1640 with 10% FBS. Five days later, Ly6G^+CD11b^+ cells derived from Lin− cells were analyzed by flow cytometry analysis.

In a further test the target is T1, PPARγ (Mus musculus, UniProt P37238).
T1 construct: host or cells: lal-/- mice (lung)
T1 sequence (P37238 1-505): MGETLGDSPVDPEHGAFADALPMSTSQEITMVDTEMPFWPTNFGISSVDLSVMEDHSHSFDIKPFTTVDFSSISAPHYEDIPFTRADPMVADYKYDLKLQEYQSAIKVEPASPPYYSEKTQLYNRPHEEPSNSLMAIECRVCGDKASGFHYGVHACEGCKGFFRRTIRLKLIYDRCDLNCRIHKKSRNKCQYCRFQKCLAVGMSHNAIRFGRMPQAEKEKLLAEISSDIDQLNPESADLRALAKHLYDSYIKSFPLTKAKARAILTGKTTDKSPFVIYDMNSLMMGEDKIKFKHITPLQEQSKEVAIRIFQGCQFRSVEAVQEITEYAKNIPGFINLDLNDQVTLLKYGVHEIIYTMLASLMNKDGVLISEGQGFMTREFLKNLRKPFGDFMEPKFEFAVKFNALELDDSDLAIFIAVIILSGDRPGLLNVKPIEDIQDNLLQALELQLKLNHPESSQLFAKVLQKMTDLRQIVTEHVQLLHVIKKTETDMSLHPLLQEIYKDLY
The conditions noted are these: previously reported; cited from earlier work.

The subject of another test is mTOR pathway. The experiment in a line: Flow cytometry of mTOR pathway in gated Ly6G+CD11b+ bone marrow cells. It is filed as cell-based, mouse. The conditions noted are these: 20 μmol/L, 2 hours. The protocol:
(§1) For in vitro PPARγ ligand treatment, 9-HODE (Cayman Chemical Co., Ann Arbor, Mich., USA) was added into the culture medium of MDSCs to a final concentration of 20 μmol/L for 24 or 48 hours. For the study of the effect of PPARγ ligand on the mTOR signaling pathway, bone marrow cells were treated with 9-HODE (20 μmol/L) for 2 hours.
Single cells from the bone marrow of 5-month-old lal^+/+ and lal^−/− mice were prepared as described in Qu et al., Cancer Res. 2009; 69:7252-7261. After 20 μmol/L 9-HODE treatment for 2 hours, cells were harvested, and labeled with anti-Ly6G and CD11b cell surface antibody (eBioscience) at 4° C. for 15 minutes. Cells were then fixed and permeabilized using BD Cytofix/Cytoperm Fixation/Permeabilization Kit (BD Biosciences) according to the manufacturer's instructions, and incubated with Alexa Fluor 647-conjugated anti-mTOR antibody, Alexa Fluor 488-conjugated anti-S6 antibody, Alexa Fluor 488-conjugated anti-pS6 (Ser235/236) antibody, and rabbit anti-pmTOR (Ser2448) antibody (Cell Signaling Technology, Beverly, Mass., USA) at 4° C. overnight. For anti-pmTOR antibody staining, cells were incubated with Alexa Fluor 647-conjugated anti-rabbit IgG in the following day. Cells were washed and ready for flow cytometry analysis. Mean fluorescence intensities of the proteins in the gated Ly6G^+CD11b^+ area were analyzed. For flow cytometry analysis, ≥10,000 cells were acquired and scored using a LSRII machine (BD Biosciences). Data were processed using the CellQuest software program (BD Biosciences).
For orientation: In flow cytometry, cells or beads pass a laser one at a time.

The test system of test [2] is B16 melanoma cells. In words: Mouse tumor growth model, pre-treated MDSCs co-injected subcutaneously with B16 melanoma cells. The test is classed as in vivo. On the procedure: as §1
The tumor growth and metastasis model were described in Zhao et al., Oncogene. 2015; 34:1938-48. MDSCs and B16 melanoma cells were collected separately. A pilot study was performed to determine the best ratio between MDSCs and B16 melanoma cells. To test the tumor growth potential, 6×10^5 pre-treated MDSCs and 2×10^5 B16 melanoma cells were mixed, centrifuged and re-suspended in 100 μL PBS, and then injected subcutaneously into the flank region of 3-month old recipient lal^+/+ mice. Tumor volume (length×width^2×π/6) was monitored every week for 4 weeks. To test the metastasis potential, 2×10^6 pre-treated MDSCs and 5×10^5 B16 melanoma cells were mixed and incubated at 37° C., 5% CO2 for 30 minutes. After the incubation, cells were centrifuged, re-suspended, and injected intravenously into 3-month old lal^+/+ mice. Two weeks after the injection, the mice were sacrificed and the lungs were inflated with 4% paraformaldehyde for examination of metastasis.

For test [3], the system named is B16 melanoma cells. In words: In vitro co-culture of pre-treated MDSCs and B16 melanoma cells. It is filed as cell-based, mouse. The note with it: lal−/− Ly6G+ cells pre-treated 20 μmol/L 24 hours; 72 hours co-culture; vs ethanol. On the procedure: Ethanol or 20 μmol/L 9-HODE pre-treated (for 24 hours) MDSCs (5×10^5) and B16 melanoma cells (5×10^3) were mixed, and seeded into a well of 96-well plates in DMEM supplemented with 10% FBS. Seventy-two hours later, unattached MDSCs were removed by washing with PBS, and the number of attached B16 melanoma cells was counted. Morphologically, MDSCs are much smaller than B16 melanoma cells for exclusion.

9-hydroxyoctadecadienoic acid [9-HODE]: the “number of B16 melanoma cells in lower chamber” value in the test on B16 melanoma cells [1] is given as “significantly less”. Besides, in the test with Lin− cells, the “Ly6G+CD11b+ cells derived from Lin− cells” value is “fewer Ly6G^+CD11b^+ cells”. In addition, on PPARγ, the “lal−/− pulmonary inflammation and aberrant gene expression” value is “significantly rescued”. For the same substance, in the test with mTOR pathway (gated lal−/− Ly6G+CD11b+ cells), the “phosphorylation of S6 (MFI)” value is on record as “decreased phosphorylation of S6” and the “phosphorylation of mTOR (MFI)” value is “decreased phosphorylation of mTOR”. In the test with mTOR pathway (lal−/− MDSCs), the “overall levels of mTOR and S6” value is “reduced the overall levels of mTOR and S6”. In the test with B16 melanoma cells [2] (C57BL/6 Ly6G+ cells into C57BL/6 mice, 7, 14 and 21 days post-injection), the “tumor size vs ethanol-treated lal−/− Ly6G+ cells” value was “significantly smaller”. Also, in the test on B16 melanoma cells [2] (lal−/− Ly6G+ cells pre-treated 20 μmol/L 24 hours, co-injected s.c. with B16 cells into lal+/+ FVB/N mice, one week after injection, ethanol control 77.6±16.4), the tumor volume was 36.3±12.4 mm^3. Also, in the test on B16 melanoma cells [3], the “proliferation of B16 melanoma cells upon co-culture” value is recorded as “significantly decreased proliferation of B16 melanoma cells”.
